Measurements published in PMC6070535, “Identification, Characterization, and X-ray Crystallographic Analysis of a Novel Type of Lectin AJLec from the Sea Anemone Anthopleura japonica” (Scientific Reports, 2018).
Values after ≈ are worked out from the molar mass of the structure shown.

biological target: T1, AJLec (Anthopleura japonica, UniProt A0A2Z5WLM1); experiment: hemagglutination inhibition, rabbit erythrocytes; format: cell-based; settings: 2.4–2.6 μg/mL AJLec, TBS-Ca2+
T1 construct: mature 164 residues, 18,491 Da, precursor 186 residues; N-terminal pyroglutamate; disulfide-linked homodimer (36 kDa); Ca2+ dependent
T1 sequence (A0A2Z5WLM1 23-186): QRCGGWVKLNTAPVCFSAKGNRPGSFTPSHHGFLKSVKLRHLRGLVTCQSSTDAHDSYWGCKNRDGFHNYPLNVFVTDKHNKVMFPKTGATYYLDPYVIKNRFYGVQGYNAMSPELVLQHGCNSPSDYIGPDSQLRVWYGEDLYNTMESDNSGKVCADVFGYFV
From the text: hemagglutination inhibition, rabbit erythrocytes on AJLec

Row | Minimum inhibitory concentration [µM] | Compound
1 | 50 (≈ 9.01 µg/mL) | OC[C@H]1OC(O)[C@H](O)[C@@H](O)[C@H]1O (some centres unmarked) [Galactose]
2 | 100 (≈ 34.2 µg/mL) | OC[C@H]1O[C@@H](O[C@H]2[C@H](O)[C@@H](O)C(O)O[C@@H]2CO)[C@H](O)[C@@H](O)[C@H]1O (some centres unmarked) [Lactose]
3 | 3000 (≈ 492 µg/mL) | C[C@@H]1OC(O)[C@@H](O)[C@H](O)[C@@H]1O (stereo partly drawn) [L-Fucose]
4 | > 25000 | CO[C@H]1O[C@H](CO)[C@@H](O)[C@H](O)[C@H]1O [Me-α-Glc]
5 | > 25000 | CO[C@H]1O[C@H](CO)[C@@H](O)[C@H](O)[C@@H]1O [Me-α-Man]
6 | 800 (≈ 155 µg/mL) | CO[C@H]1O[C@H](CO)[C@H](O)[C@H](O)[C@H]1O [Me-α-Gal]
7 | 800 (≈ 404 µg/mL) | OC[C@H]1O[C@H](OC[C@H]2O[C@H](O[C@]3(CO)O[C@H](CO)[C@@H](O)[C@@H]3O)[C@H](O)[C@@H](O)[C@@H]2O)[C@H](O)[C@@H](O)[C@H]1O [Raffinose]
8 | 25000 (≈ 5530 µg/mL) | CC(=O)N[C@H]1C(O)O[C@H](CO)[C@H](O)[C@@H]1O (some centres unmarked) [N-Acetylgalactosamine]
9 | > 25000 | OC[C@H]1OC(O)[C@@H](O)[C@@H](O)[C@@H]1O (stereo partly drawn) [D-Mannose]
10 | 3100 (≈ 1060 µg/mL) | OC[C@H]1O[C@H](OC[C@H]2OC(O)(CO)[C@@H](O)[C@@H]2O)[C@H](O)[C@@H](O)[C@@H]1O (some centres unmarked) [Palatinose]
11 | 3000 (≈ 492 µg/mL) | C[C@@H]1OC(O)[C@H](O)[C@H](O)[C@H]1O (stereo partly drawn) [L-Rhamnose]
12 | 6300 (≈ 2160 µg/mL) | OC[C@H]1O[C@H](O[C@H]2[C@H](O)[C@@H](O)C(O)O[C@@H]2CO)[C@H](O)[C@@H](O)[C@@H]1O (some centres unmarked) [Maltose]
13 | > 25000 | OC[C@H]1OC(O)[C@H](O)[C@@H](O)[C@@H]1O (stereo partly drawn) [D-Glucose]
14 | 400 (≈ 77.7 µg/mL) | CO[C@@H]1O[C@H](CO)[C@H](O)[C@H](O)[C@H]1O [Me-β-Gal]
15 | 800 (≈ 274 µg/mL) | OC[C@H]1O[C@H](OC[C@H]2OC(O)[C@H](O)[C@@H](O)[C@@H]2O)[C@H](O)[C@@H](O)[C@H]1O (some centres unmarked) [Melibiose]
16 | 100 (≈ 34.2 µg/mL) | OC[C@H]1O[C@@H](O[C@@H]2[C@@H](CO)OC(O)(CO)[C@H]2O)[C@H](O)[C@@H](O)[C@H]1O (some centres unmarked) [Lactulose]

biological target: AJLec (Anthopleura japonica Lectin) (Anthopleura japonica); experiment: crystal structure; AJLec with 100 mM lactose and 1 mM CaCl2 in TBS; vapor diffusion, 200 mM NaCl, 100 mM HEPES pH 7.5, 30% PEG 3350, 20 °C; two chains per asymmetric unit; settings: not given

Row | stoichiometry N | Compound
17 | 2 | AJLec (Anthopleura japonica Lectin) (natural protein)
